Measurements from patent US20230123104A1, “CRYSTAL OF TRICYCLIC COMPOUND ACTING ON CRBN PROTEIN AND PREPARATION METHOD THEREFOR” (CHIA TAI TIANQING PHARMACEUTICAL GROUP CO., LTD., priority 2020, published 2023).

Experiments:
Assay type in all cases: physicochemical
[1] = Solid stability test under accelerated conditions (40° C./relative humidity at 75%, sealed)
Procedure: According to the “Guidelines for the Stability Test of APIs and Preparations” (General Principles 9001 of the Four Parts of the Chinese Pharmacopoeia, 2020 Edition), the stability of the crystalline form A of the compound of formula (I) was investigated under accelerated conditions at high temperature and high humidity (40° C./relative humidity at 75%, sealed).
(§1) 1.5 g of the crystalline form A of the compound of formula (I) was weighed into a double-layer low-density polyethylene bag. Each layer a the low-density polyethylene bag was sealed with a binding tie, and the bag was put into an aluminum foil bag. Samples were taken in months 1, 2, 3 and 6 for analysis, and the results were compared with the preliminary results of day 0. This experiment was repeated twice, each with a different batch of the crystalline form A of the compound of formula (I).

[2] = Solid stability test under long-term conditions (25° C./relative humidity at 60%, sealed)
Procedure: According to the “Guidelines for the Stability Test of APIs and Preparations” (General Principles 9001 of the Four Parts of the Chinese Pharmacopoeia, 2020 Edition), the stability of the crystalline form A of the compound of formula (I) was investigated under long-terns conditions (25° C./relative humidity at 60%, sealed).
as §1, with “layer of” for “layer a”, “foil hag.” for “foil bag.”, “months” for “months 1, 2,”

[3] = Stability test of crystalline form A in different solvents (XRPD); settings: methanol, ethanol, acetone, acetonitrile, tetrahydrofuran, methyl tert-butyl ether, ethyl acetate, water, acetonitrile or acetone with water
Procedure: 50-mg portions of the crystalline form A of the compound of formula (I) were weighed into different 2.0 mL glass vials, and appropriate amounts of single or mixed solvents in the table below were added. After the addition of magnetic stir bars, the samples were stirred on a magnetic stirrer (25° C./50° C., 700 rpm) in the dark. The 25° C. samples were stirred for 1 week and centrifuged, and the resulting solid samples were dried in a vacuum oven at 40° C. overnight. The 50° C. samples were stirred for 2 days and centrifuged in a centrifuge tube with a filter membrane, and the solvent in the lower layer was discarded. The samples were let stand in a fume hood for 1 h so that they were air-dried. The resulting dried samples were subjected to XRPD analysis to determine their crystalline forms.

[4] = Hygroscopicity study by dynamic vapor sorption (DVS)
Procedure: In the present application, dynamic vapor sorption (DVS) analysis is performed under the following conditions: instrument: SMS DVS Advantage-1; equilibration: dm/dt=0.01%/min (shortest: 60 min, longest: 180 min); drying: drying at 0% RH for 120 min; RH (%) test gradient: 10%; range of RH (%) test gradient: 0%-90%-0%.
The evaluation of hygroscopicity was classified as follows:
Dynamic Vapor Sorption Apparatus SMS DVS Advantage-1
10-15 mg of the crystalline form A of the compound of formula (I) was placed in a DVS sample tray and tested.

[5] = Solid stability test at high temperature, at high humidity, and in intense light
Procedure: According to the “Guidelines for the Stability Test of APIs and Preparations” (General Principles 9001 of the Four Parts of the Chinese Pharmacopoeia, 2020 Edition), the stability of the crystalline form A of the compound of formula (I) was investigated at high temperature (60° C., open), at high humidity (room temperature/relative humidity at 92.5%, open), and in intense light (5000±500 Lux, 90 μw/cm^2, open).
1.5 g of the crystalline form A of the compound of formula (I) was weighed into an open measuring flask and spread out to form a thin layer. The sample for high temperature test was placed in an electrothermal drying oven and investigated, and the sample for high humidity test was placed in an integrated drug stability test chamber and investigated. Samples were taken on days 5, 10 and 30 for analysis, and the results were compared with the preliminary results of day 0. The sample for intense light test was placed in an open flask. Samples were taken on days 5 and 10 for analysis, and the results were compared with the preliminary results of day 0.

[6] = Batch 1, 40° C./relative humidity at 75%, sealed, Month 1
[7] = Batch 1, 40° C./relative humidity at 75%, sealed, Month 2
[8] = Batch 1, 40° C./relative humidity at 75%, sealed, Month 3
[9] = Batch 1, 40° C./relative humidity at 75%, sealed, Month 6
[10] = Batch 2, 40° C./relative humidity at 75%, sealed, Month 1
[11] = Batch 2, 40° C./relative humidity at 75%, sealed, Month 2
[12] = Batch 2, 40° C./relative humidity at 75%, sealed, Month 3
[13] = Batch 2, 40° C./relative humidity at 75%, sealed, Month 6
[14] = Batch 1, 25° C./relative humidity at 60%, sealed, Month 3
[15] = Batch 1, 25° C./relative humidity at 60%, sealed, Month 6
[16] = Batch 2, 25° C./relative humidity at 60%, sealed, Month 3
[17] = Batch 2, 25° C./relative humidity at 60%, sealed, Month 6
[18] = High humidity (room temperature/relative humidity 92.5%, open), Day 5
[19] = High humidity (room temperature/relative humidity 92.5%, open), Day 10
[20] = High humidity (room temperature/relative humidity 92.5%, open), Day 30
[21] = High temperature (60° C., open), Day 5
[22] = High temperature (60° C., open), Day 10
[23] = High temperature (60° C., open), Day 30
[24] = Intense light (5000 ± 500 Lux, 90 μw/cm^2, open), Day 5
[25] = Intense light (5000 ± 500 Lux, 90 μw/cm^2, open), Day 10

Q: With `O=C1CCC(c2noc3ccc4[nH]ccc4c23)C(=O)N1` (stereo not drawn) as the molecule, how does the Content [1, 6] read?
A: Its Content is 100.1%.

Q: And the Total impurities [1, 6]?
A: Its Total impurities is 0.05%.

Q: And the Content [1, 7]?
A: The Content was 100.4%.

Q: And the Total impurities [1, 7]?
A: The Total impurities was under 0.05%.

Q: What about the Content [1, 8] of the same molecule?
A: The Content was 100.4%.

Q: What about the Total impurities [1, 8] of the same molecule?
A: The Total impurities was under 0.05%.

Q: And the Content [1, 9]?
A: Its Content is 98.1%.

Q: What about the Total impurities [1, 9] of the same molecule?
A: Its Total impurities is under 0.05%.

Q: What about the Content ([1]; Batch 1, Day 0) of the same molecule?
A: Its Content is 98.9%.

Q: And the Total impurities ([1]; Batch 1, Day 0)?
A: Its Total impurities is under 0.05%.

Q: And the Content [1, 10]?
A: Its Content is 100.0%.

Q: What about the Total impurities [1, 10] of the same molecule?
A: Its Total impurities is 0.05%.

Q: And the Content [1, 11]?
A: Its Content is 100.2%.

Q: And the Total impurities [1, 11]?
A: The Total impurities was under 0.05%.

Q: And the Content [1, 12]?
A: The Content was 100.2%.

Q: And the Total impurities [1, 12]?
A: The Total impurities was under 0.05%.

Q: And the Content [1, 13]?
A: Its Content is 99.2%.

Q: And the Total impurities [1, 13]?
A: The Total impurities was under 0.05%.

Q: And the Appearance ([1]; Batch 2, Day 0)?
A: The Appearance was “White powder”.

Q: And the Content ([1]; Batch 2, Day 0)?
A: The Content was 100.2%.

Q: What about the Total impurities ([1]; Batch 2, Day 0) of the same molecule?
A: The Total impurities was under 0.05%.

Q: What about the “solid stability (conclusion)” value ([1]; accelerated conditions at 40° C. with relative humidity at 75%) of the same molecule?
A: The value was “good stability”.

Q: What about the Content [2, 14] of the same molecule?
A: Its Content is 99.8%.

Q: And the Total impurities [2, 14]?
A: Its Total impurities is under 0.05%.

Q: What about the Content [2, 15] of the same molecule?
A: The Content was 99.2%.

Q: What about the Total impurities [2, 15] of the same molecule?
A: The Total impurities was under 0.05%.

Q: What about the Content ([2]; Batch 1, Day 0) of the same molecule?
A: The Content was 98.9%.

Q: What about the Total impurities ([2]; Batch 1, Day 0) of the same molecule?
A: Its Total impurities is under 0.05%.

Q: And the Appearance [2, 16]?
A: The Appearance was “White powder”.

Q: And the Content [2, 16]?
A: Its Content is 100.4%.

Q: What about the Total impurities [2, 16] of the same molecule?
A: Its Total impurities is under 0.05%.

Q: What about the Appearance [2, 17] of the same molecule?
A: The Appearance was “White powder”.

Q: And the Content [2, 17]?
A: Its Content is 100.4%.

Q: And the Total impurities [2, 17]?
A: Its Total impurities is under 0.05%.

Q: And the Appearance ([2]; Batch 2, Day 0)?
A: Its Appearance is “White powder”.

Q: And the Content ([2]; Batch 2, Day 0)?
A: Its Content is 100.2%.

Q: And the Total impurities ([2]; Batch 2, Day 0)?
A: The Total impurities was under 0.05%.

Q: What about the “solid stability (conclusion)” value ([2]; long-term conditions at 25° C. with relative humidity at 60%) of the same molecule?
A: The value was “good stability”.

Q: What about the “stability in solvents (conclusion)” value [3] of the same molecule?
A: Its value is “good stability”.

Q: What about the hygroscopicity classification ([4]; 25° C., 80% RH, DVS) of the same molecule?
A: Its hygroscopicity classification is “no or almost no hygroscopicity”.

Q: And the “crystalline form after DVS test” value ([4]; after DVS)?
A: The value was “remained unchanged”.

Q: What about the Content ([5]; Day 0) of the same molecule?
A: The Content was 98.9%.

Q: What about the Total impurities ([5]; Day 0) of the same molecule?
A: The Total impurities was under 0.05%.

Q: And the Content [5, 18]?
A: The Content was 100.7%.

Q: And the Total impurities [5, 18]?
A: Its Total impurities is under 0.05%.

Q: What about the Content [5, 19] of the same molecule?
A: Its Content is 100.2%.

Q: What about the Total impurities [5, 19] of the same molecule?
A: The Total impurities was under 0.05%.

Q: What about the Content [5, 20] of the same molecule?
A: The Content was 100.4%.

Q: What about the Total impurities [5, 20] of the same molecule?
A: Its Total impurities is under 0.05%.

Q: What about the Content [5, 21] of the same molecule?
A: The Content was 99.9%.

Q: What about the Total impurities [5, 21] of the same molecule?
A: The Total impurities was under 0.05%.

Q: And the Content [5, 22]?
A: The Content was 100.2%.

Q: And the Total impurities [5, 22]?
A: Its Total impurities is under 0.05%.

Q: And the Content [5, 23]?
A: The Content was 100.2%.

Q: What about the Total impurities [5, 23] of the same molecule?
A: Its Total impurities is under 0.05%.

Q: What about the Content [5, 24] of the same molecule?
A: Its Content is 100.7%.

Q: And the Total impurities [5, 24]?
A: Its Total impurities is under 0.05%.

Q: What about the Content [5, 25] of the same molecule?
A: The Content was 100.0%.

Q: What about the Total impurities [5, 25] of the same molecule?
A: Its Total impurities is under 0.05%.

Q: What about the “solid stability (conclusion)” value ([5]; at high temperature, at high humidity, and in intense light) of the same molecule?
A: Its value is “good stability”.
